Reference: ChEMBL document CHEMBL1151676, “Structure and absolute stereochemistry of fusaproliferin, a toxic metabolite from Fusarium proliferatum” (J Nat Prod, 1996)
Values after ≈ are worked out from the molar mass of the structure shown.

Assay: Toxicity in Artemia salina
Assay type: organism-based
Conditions: in vivo, read-out: LD50 (the source's name)

CC(=O)OC[C@@H](C)C1=C(O)C(=O)[C@@]2(C)C/C=C(\C)CC/C=C(\C)CC[C@H](O)/C(C)=C/C[C@H]12 [FUSAPROLIFERIN]
LC50: 0.4 µg/mL (≈ 0.9 µM)
